Reference: publication PMC5538626, “Structural and functional analysis of the GABARAP interaction motif (GIM)” (EMBO Reports, 2017)
Ends that are not written are not given here.

Assays:
[1] = biological target: T1, GABARAP (Homo sapiens, UniProt O95166); assay: ITC titration of PLEKHM1-LIR peptides into GABARAP; format: binding; conditions: ITC; for ΔH: VP-ITC, one-site model, 0.4 mM peptide into 0.020 mM protein, 50 mM Na2HPO4, 100 mM NaCl; for K D of GABARAP lower compared to LC3B / specificity GABARAP over LC3B: GABARAP vs LC3B
T1 construct: modified Ub-leader (ubiquitin fusion leader) (N); made in house; host or cells: E. coli NEB T7 Express
T1 sequence (O95166 whole entry, the tested form may be a part): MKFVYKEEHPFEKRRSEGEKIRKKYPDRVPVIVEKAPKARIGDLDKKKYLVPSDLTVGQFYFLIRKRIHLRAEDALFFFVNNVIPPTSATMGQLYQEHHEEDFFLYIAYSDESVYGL
Method: (§1) The genes for the truncated LC3A^2–121, LC3C^8–125, GABARAP^2–117 and GABARAP‐L1^2–117 proteins were cloned into pET30ΔSE vector between the BamHI and XhoI sites using previously established protocols 38. The chimeric constructs of the PLEKHM1‐LIR attached to the LC3A, GABARAP and GABARAP‐L1 proteins were prepared by inserting the oligonucleotide sequence corresponding to the PLEKHM1‐LIR peptide (P^629[…]^638) and glycine–serine linker into the BamHI site of the pET30ΔSE vector, placing the PLEKHM1‐LIR at the N‐terminal of the mature chimeric protein (similar to 31, 38). For the expression of human LC3 and GABARAP proteins for ITC and NMR experiments, plasmids with appropriate modified Ub‐leaders in pET vectors were used 39. Gene, encoding PLEKHM1‐LIR peptide, was ordered as synthetic oligonucleotides (Eurofins Genomics GmbH) and cloned into the pET39_Ub63_ vector 39 by NcoI–BamHI restriction sites. After TEV cleavage, the resulting peptide has the amino acid sequence GAMG‐P^629[…]^642, where the first four residues (GAMG) are the cloning artefact.
(§2) The chimeric constructs were expressed as a His‐tag fusion protein in E. coli BL21(DE3) cells. The cells were induced with 0.3 mM IPTG at OD600 0.6 for 16 h at 26°C. The cell pellets were lysed using mechanical sonication in lysis buffer (20 mM Tris–HCl pH 9.0, 100 mM NaCl, 10 mM imidazole, supplemented with 0.1% Triton X‐100). The proteins were purified using Ni‐NTA beads (GE Healthcare) and the His‐tag was cleaved using thrombin (Invitrogen) at room temperature for 16 h. The last step was gel filtration chromatography using a Superdex S200/300 GL column (GE Healthcare). The proteins were concentrated using spin concentrators (Vivaspin). For ITC and NMR studies, the non‐labelled and stable isotopes labelled LC3 and GABARAP proteins were obtained based on the protocols described elsewhere 30, 39. Here, E. coli NEB T7 Express culture transformed with corresponding plasmids were grown till OD600 nm = 1.0 and protein expression was induced with 0.2 mM IPTG. The cultures were incubated at 25°C for 8–12 h before cell harvesting. Isolation and purification procedures were similar to those reported in Ref. 22, 40. Before experiments, all proteins and peptides were equilibrated with a buffer containing 50 mM Na2HPO4, 100 mM NaCl at pH 7.0, and supplied with 5 mM protease inhibitor cocktail.
(§3) The protocol for preparation of non‐labelled and ^13C,^15N‐labelled PLEKHM1‐LIR peptide was slightly modified to achieve highest yield of the peptide. The 50 ml M9 culture was inoculated with NEB T7 cell transformed with pET39_Ub63‐PLEKHM1‐LIR plasmid and grown overnight at 37°. The collected cells were resuspended in 2 l of either LB or M9 media contained 1.5 g ^15N‐labelled NH4Cl and 3.0 g of ^13C‐labelled glucose. The cultures were grown at 37° till A(600 nm) = 0.9 and supplied with 1 mM of IPTG to induce Ub63‐PLEKHM1‐LIR overexpression (3 h at 37°). After that cells were harvested by centrifugation, re‐suspended in buffer contained 50 mM Tris–HCl pH = 7.9, 200 mM NaCl, 5% glycerol, 0.1 mg/ml DNase A and 4 mM protease inhibitor cocktail. After cell lysis by French press, debris was removed by centrifugation and clear supernatant was applied onto the column contained Ni‐NTA Sepharose equilibrated with the loading buffer (50 mM Tris–HCl pH = 7.9, 250 mM NaCl, 1% glycerol and 20 mM imidazole). Elution was performed with 400 mM imidazole in the same buffer. An aliquot of pure Ub63‐PLEKHM1‐LIR fractions was further purified by gel filtration on Superdex75 26 × 60 column for control ITC and analytical size exclusion chromatography experiments, remaining fusion protein was processed with the TEV‐protease and PLEKHM1‐LIR peptide was purified to 95% purity by reverse Ni‐NTA chromatography and followed gel filtration on Superdex75 26 × 60 column. Peak maximum of peptide was detected at […] (void volume 115 ml). Pure peptide was concentrated in Amicon concentrators with cut‐off of 3 kDa (> 95% retention). […]

[2] = biological target: T2, LC3C (Homo sapiens, UniProt Q9BXW4); assay: ITC titration of PLEKHM1-LIR peptide into LC3C; format: binding; conditions: 25°C, pH 7.0
T2 construct: modified Ub-leader (ubiquitin fusion leader) (N); made in house; host or cells: E. coli NEB T7 Express
T2 sequence (Q9BXW4 whole entry, the tested form may be a part): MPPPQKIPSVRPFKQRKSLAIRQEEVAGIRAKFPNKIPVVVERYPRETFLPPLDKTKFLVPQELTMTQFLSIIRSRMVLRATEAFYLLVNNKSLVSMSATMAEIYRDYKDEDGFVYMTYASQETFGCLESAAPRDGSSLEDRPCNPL
Method: as §1, §2, §3

[3] = biological target: LC3-subfamily of proteins; assay: ITC, LC3-subfamily (range); format: binding, human
Method: All titration experiments were performed at 25°C using a VP‐ITC microcalorimeter (Malvern Instruments Ltd, UK). The ITC data were analysed with the ITC‐Origin 7.0 software with a “one‐site” binding model. The peptides at concentrations of 0.4 mM were titrated into 0.020 mM LC3 and GABARAP proteins in 26 steps. The protein and peptide concentrations were calculated from the UV absorption at 280 nm by NanoDrop spectrophotometer (Thermo Fisher Scientific, DE, USA).

[4] = system: LC3 subfamily proteins (LC3A, LC3B); assay: NMR titration of 15N-labelled LC3 proteins with PLEKHM1-LIR peptide; format: binding, human; conditions: 298 K, 0.18 mM 15N-labelled protein, up to four times peptide excess
Method: All NMR experiments were performed at 298 K on Bruker Avance spectrometers operating at proton frequencies of 500, 600 and 700 MHz. Titration experiments were performed with a 0.18 mM ^15N‐labelled LC3 and GABARAP protein samples to which the non‐labelled PLEKHM1‐LIR peptide was added stepwise until four times excess to LC3 proteins or two times excess to the GABARAP proteins. Backbone HN resonances for selected mATG8 proteins in complex with the PLEKHM1‐LIR peptide were assigned using [^15N‐^1H]‐TROSY versions of 3D HNCACB experiment. For assignment of PLEKHM1‐LIR peptide backbone HN resonances in complexes with the LC3 and GABARAP proteins, [^15N‐^1H]‐TROSY versions of 3D HNCACB experiment and hCcconh‐TOCSY experiment were used.

[5] = 25°C, pH 7.0, listed as PLEKHM1-LIR

GAMGPQQEDEWVNVQYPD [PLEKHM1‐LIR WT]
ΔH ([1]; 25°C, pH 7.0): -10.6 ± 0.1 kcal/mol | ΔH [1, 5]: -10.60 ± 0.1 kcal/mol | KA ([1]; 25°C, pH 7.0): 1.8 ± 0.1 ×10^6 M^−1 | N (number of binding sites) ([1]; 25°C, pH 7.0): 1.00 ± 0.01 | ΔG ([1]; 25°C, pH 7.0): -8.54 kcal/mol | ΔS ([1]; 25°C, pH 7.0): −6.92 cal mol^−1 K^−1 | −T × ΔS ([1]; 25°C, pH 7.0): +2.06 kcal mol^−1 | KA [1, 5]: 1.8±0.1 ×10^6 M^−1 | ΔG [1, 5]: -8.54 kcal/mol | ΔS [1, 5]: -6.92 cal mol^−1 K^−1 | K D of GABARAP lower compared to LC3A (times) ([1]; GABARAP vs LC3A): approximately eight | K D of GABARAP lower compared to LC3B / specificity GABARAP over LC3B [1]: 11 fold | K D of GABARAP lower compared to LC3B / specificity GABARAP over LC3B ([1]; listed as PLEKHM1‐LIR peptide): approximately 11 fold | ΔH ([2]; VP-ITC, one-site model, 0.4 mM peptide into 0.020 mM protein, 50 mM Na2HPO4, 100 mM NaCl): -8.3 ± 0.2 kcal/mol | KA [2]: 0.29 ± 0.02 ×10^6 M^−1 | N (number of binding sites) [2]: 0.99 ± 0.02 | ΔG [2]: -7.48 kcal/mol | ΔS [2]: −2.83 cal mol^−1 K^−1 | −T × ΔS [2]: +0.84 kcal mol^−1 | Kd [3]: 3.5 to 6.3 µM | exchange behaviour upon titration, LC3 subfamily [4]: intermediate exchange
